# Source: patent US10537565B2, “Solid forms of N-[2,4-bis(1,1-dimethylethyl)-5-hydroxyphenyl]-1,4-dihydro-4-oxoquinoline-3-carboxamide” (Vertex Pharmaceuticals Incorporated, priority 2005, dated 2020)
# Experiments:
# [1] = Bioavailability (PK) of solid state forms of Compound 1 in rat, oral dosing compared to IV solution; conditions: in vivo
# Protocol: Bioavailability of crystalline Form B, 85% amorphous Compound 1 and HPMCAS solid dispersion of Compound 1 were evaluated in rat, the results of which are provided in Table 4 below. These forms of the compound were dosed in an oral suspension with a vehicle containing 0.5% methyl cellulose/0.5% SLS/99% water. Bioavailability of various solid forms was evaluated as compared to a multicomponent IV solution of Compound 1. Bioavailability of crystalline […] was 3-6%, compared to 61-95% for amorphous material and 109-111% for solid dispersion.
# Solubility in FaSSIF = assay type: physicochemical
Compound,"bioavailability ([1]; 50 mg/kg, % F) [%]","bioavailability ([1]; 200 mg/kg, % F) [%]","% F ([1]; po, 50 mg/kg) [%]","Tmax ([1]; po, 50 mg/kg) [h]","Tmax ([1]; po, 50 mg/kg, Tmax) [h]","% F ([1]; po, 200 mg/kg) [%]",solubility (Solubility in FaSSIF; listed as crystalline polymorph B) [µg/mL],bioavailability ([1]; po),"AUC ([1]; po, 50 mg/kg) [µg·h/mL]","AUC ([1]; po, 200 mg/kg) [µg·h/mL]","Tmax ([1]; po, 200 mg/kg) [h]",solubility (Solubility in FaSSIF; listed as 85% amorphous material) [µg/mL]
"CC(C)(C)c1cc(C(C)(C)C)c(NC(=O)c2c[nH]c3ccccc3c2=O)cc1O [Crystalline, N-[2,4-bis(1,1-dimethylethyl)-5-hydroxyphenyl]-1,4-dihydro-4-oxoquinoline-3-carboxamide]",74,67,5.5,4.0,5.5,3.1,1.0,,,,,
"CC(C)(C)c1cc(C(C)(C)C)c(NC(=O)c2c[nH]c3ccccc3c2=O)cc1O [85% Amorphous, N-[2,4-bis(1,1-dimethylethyl)-5-hydroxyphenyl]-1,4-dihydro-4-oxoquinoline-3-carboxamide]",,,95.0,6.0,,61.0,,61-95%,135.5,371.9,6.0,67.4
